The source of these data is ChEMBL document CHEMBL5352466, “New bioisosteric sulphur-containing choline kinase inhibitors with a tracked mode of action” (Eur J Med Chem, 2023).

The term GI50 denotes the concentration at which growth is held to half of that of the control. As usually defined, the IC50 is the concentration that gives 50% inhibition.

The source made the active and inactive calls. No cut-off for these calls is given here.

One series deals with MCF7. Nature of the series: Antiproliferative activity against human MCF7 cells assessed as inhibition of cell growth incubated for 72 hrs. It counts as functional.
Series [1] can be described thus: Drug localization in cytosol of human MCF7 cells assessed as increase in fluorescence intensity at 8 uM by microscopic analysis. Format: ADME, subcellular.
The subject of the next series is HT-29. The series is described as follows: Antiproliferative activity against human HT-29 cells assessed as inhibition of cell growth incubated for 72 hrs. Format: functional.
For a further series, the system named is A549. Nature of the series: Antiproliferative activity against human A549 cells assessed as inhibition of cell growth incubated for 72 hrs. Format: functional.
A further series relates to MDA-MB-231. The series is described as follows: Antiproliferative activity against human MDA-MB-231 cells assessed as inhibition of cell growth incubated for 72 hrs. It counts as functional.
The next series has as its system Cell membrane. Nature of the series: Induction of cell membrane disruption in human MCF7 cells at 8 uM measured after 90 mins. Format: subcellular.
Series [2] in a line: Drug localization in cytosol of human MCF7 cells assessed as increase in fluorescence intensity at 8 uM measured after 15 mins by microscopic analysis. Format: ADME, subcellular. Particulars: 0.25 h.
The next series has as its system HeLa. The series is described as follows: Antiproliferative activity against human HeLa cells assessed as inhibition of cell growth incubated for 72 hrs. It counts as functional.
A further series deals with Choline kinase alpha (Homo sapiens, UniProt P35790). The series is described as follows: Inhibition of human Choline kinase alpha 1 incubated for 10 mins by liquid-scintillation counter analysis. Particulars: read-out: IC50.
Sequence of Choline kinase alpha (P35790 whole entry): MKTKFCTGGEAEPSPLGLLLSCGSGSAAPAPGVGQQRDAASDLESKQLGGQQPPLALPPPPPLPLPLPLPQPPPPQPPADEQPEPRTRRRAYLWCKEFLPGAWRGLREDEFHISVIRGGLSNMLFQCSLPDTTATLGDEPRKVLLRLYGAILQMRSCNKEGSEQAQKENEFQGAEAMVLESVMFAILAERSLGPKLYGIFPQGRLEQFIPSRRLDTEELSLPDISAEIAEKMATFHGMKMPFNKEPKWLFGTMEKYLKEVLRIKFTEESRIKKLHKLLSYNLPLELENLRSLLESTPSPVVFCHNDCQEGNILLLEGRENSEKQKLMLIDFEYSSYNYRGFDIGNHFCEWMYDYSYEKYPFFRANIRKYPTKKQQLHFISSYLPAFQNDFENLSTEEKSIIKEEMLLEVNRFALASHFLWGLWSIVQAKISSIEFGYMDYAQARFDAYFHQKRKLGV

Regarding `[Br-].[Br-].c1cc2c(s1)c(N1CCCC1)nc[n+]2Cc1ccc(SCCSc2ccc(C[n+]3cnc(N4CCCC4)c4sccc43)cc2)cc1`, the GI50 in the series with MCF7 was 4340 nM; in the series on HT-29 it was 2630 nM; in the series on A549, 440 nM; in the series on MDA-MB-231 it was 1630 nM; in the series on HeLa, 10100 nM. The Drug uptake result in series [1] and in series [2] was “Active” each time. Further, the outcome in the series with Cell membrane was inactive. Besides, at Choline kinase alpha, the half-inhibitory concentration (IC50) came to 1350 nM.
